Assay results reported in patent US20160367623A1, “AGONISTS OF GUANYLATE CYCLASE USEFUL FOR THE TREATMENT OF GASTROINTESTINAL DISORDERS, INFLAMMATION, CANCER AND OTHER DISORDERS” (priority 2015, published 2016).
Bridge positions count the residues as written; N and C are the ends. Ends that are not written are not given here.

System: patients with chronic idiopathic constipation (CIC)
Assay: Second phase 3 CIC trial: change from baseline in CSBMs/week
Type: in vivo, human
[1] = Post-Treatment Week 13, 3 mg, ITT Population, MRA
[2] = Post-Treatment Week 13, 3 mg, ITT Population-Excluding Duplicate Patients, MRA
[3] = Post-Treatment Week 13, 6 mg, ITT Population, MRA
[4] = Post-Treatment Week 13, 6 mg, ITT Population-Excluding Duplicate Patients, MRA
[5] = Post-Treatment Week 14, 3 mg, ITT Population, MRA
[6] = Post-Treatment Week 14, 3 mg, ITT Population-Excluding Duplicate Patients, MRA
[7] = Post-Treatment Week 14, 6 mg, ITT Population, MRA
[8] = Post-Treatment Week 14, 6 mg, ITT Population-Excluding Duplicate Patients, MRA
[9] = Week 1, 3 mg, ITT Population, MRA
[10] = Week 1, 3 mg, ITT Population-Excluding Duplicate Patients, MRA
[11] = Week 1, 6 mg, ITT Population, MRA
[12] = Week 1, 6 mg, ITT Population-Excluding Duplicate Patients, MRA
[13] = Week 2, 3 mg, ITT Population, MRA
[14] = Week 2, 3 mg, ITT Population-Excluding Duplicate Patients, MRA
[15] = Week 2, 6 mg, ITT Population, MRA
[16] = Week 2, 6 mg, ITT Population-Excluding Duplicate Patients, MRA
[17] = Week 3, 3 mg, ITT Population, MRA
[18] = Week 3, 3 mg, ITT Population-Excluding Duplicate Patients, MRA
[19] = Week 3, 6 mg, ITT Population, MRA

Asn^1-Asp^2-Glu^3-Cys^4-Glu^5-Leu^6-Cys^7-Val^8-Asn^9-Val^10-Ala^11-Cys^12-Thr^13-Gly^14-Cys^15-Leu^16 (NDECELCVNVACTGCL; disulfide 4-12, 7-15) [Plecanatide, uroguanylin analogue, guanylate cyclase-C agonist; (C4:C12, C7:C15) bicycle peptide]
Change from Baseline in CSBMs, LS Mean (SE) (6 mg, overall average estimate across the 12-week treatment period, All Randomized (includes Duplicate Patients)): 2.14 (0.129) CSBMs/week | Change from Baseline in CSBMs, Mean (SD) (Active Combined, Post-Treatment Week 13, All Randomized (includes Duplicate Patients)): 1.73 (2.552) CSBMs/week | Change from Baseline in CSBMs, Mean (SD) (Active Combined, Post-Treatment Week 14, All Randomized (includes Duplicate Patients)): 1.69 (2.591) CSBMs/week | Change from Baseline in CSBMs, Mean (SD) (Active Combined, Week 1, All Randomized (includes Duplicate Patients)): 1.73 (2.803) CSBMs/week | Change from Baseline in CSBMs, Mean (SD) (Active Combined, Week 2, All Randomized (includes Duplicate Patients)): 1.83 (3.037) CSBMs/week | Change from Baseline in CSBMs, Mean (SD) (Active Combined, Week 3, All Randomized (includes Duplicate Patients)): 1.89 (3.005) CSBMs/week | Change from Baseline in CSBMs, Difference from Placebo [1]: 0.43 CSBMs/week | Change from Baseline in CSBMs, LS Mean (SE) [1]: 1.94 (0.134) CSBMs/week | Change from Baseline in CSBMs, Mean (SD) [1]: 1.88 (2.733) CSBMs/week | Change from Baseline in CSBMs, Difference from Placebo [2]: 0.46 CSBMs/week | Change from Baseline in CSBMs, LS Mean (SE) [2]: 1.96 (0.135) CSBMs/week | Change from Baseline in CSBMs, Mean (SD) [2]: 1.90 (2.743) CSBMs/week | Change from Baseline in CSBMs, Difference from Placebo [3]: 0.20 CSBMs/week | Change from Baseline in CSBMs, LS Mean (SE) [3]: 1.70 (0.134) CSBMs/week | Change from Baseline in CSBMs, Mean (SD) [3]: 1.64 (2.393) CSBMs/week | Change from Baseline in CSBMs, Difference from Placebo [4]: 0.18 CSBMs/week | Change from Baseline in CSBMs, LS Mean (SE) [4]: 1.69 (0.133) CSBMs/week | Change from Baseline in CSBMs, Mean (SD) [4]: 1.62 (2.339) CSBMs/week | Change from Baseline in CSBMs, Mean (SD) (Post-Treatment Week 13, Active Combined, ITT Population-Excluding Duplicate Patients, MRA): 1.76 (2.547) CSBMs/week | Change from Baseline in CSBMs, Mean (SD) (Post-Treatment Week 13, Active Combined, ITT Population, MRA): 1.76 (2.567) CSBMs/week | Change from Baseline in CSBMs, Difference from Placebo [5]: 0.43 CSBMs/week | Change from Baseline in CSBMs, LS Mean (SE) [5]: 1.82 (0.136) CSBMs/week | Change from Baseline in CSBMs, Mean (SD) [5]: 1.78 (2.620) CSBMs/week | Change from Baseline in CSBMs, Difference from Placebo [6]: 0.43 CSBMs/week | Change from Baseline in CSBMs, LS Mean (SE) [6]: 1.83 (0.137) CSBMs/week | Change from Baseline in CSBMs, Mean (SD) [6]: 1.78 (2.628) CSBMs/week | Change from Baseline in CSBMs, Difference from Placebo [7]: 0.34 CSBMs/week | Change from Baseline in CSBMs, LS Mean (SE) [7]: 1.73 (0.137) CSBMs/week | Change from Baseline in CSBMs, Mean (SD) [7]: 1.67 (2.616) CSBMs/week | Change from Baseline in CSBMs, Difference from Placebo [8]: 0.31 CSBMs/week | Change from Baseline in CSBMs, LS Mean (SE) [8]: 1.71 (0.136) CSBMs/week | Change from Baseline in CSBMs, Mean (SD) [8]: 1.64 (2.536) CSBMs/week | Change from Baseline in CSBMs, Mean (SD) (Post-Treatment Week 14, Active Combined, ITT Population-Excluding Duplicate Patients, MRA): 1.71 (2.582) CSBMs/week | Change from Baseline in CSBMs, Mean (SD) (Post-Treatment Week 14, Active Combined, ITT Population, MRA): 1.72 (2.616) CSBMs/week | Change from Baseline in CSBMs, Difference from Placebo [9]: 0.88 CSBMs/week | Change from Baseline in CSBMs, LS Mean (SE) [9]: 1.72 (0.153) CSBMs/week | Change from Baseline in CSBMs, Mean (SD) [9]: 1.75 (2.732) CSBMs/week | Change from Baseline in CSBMs, Difference from Placebo [10]: 0.88 CSBMs/week | Change from Baseline in CSBMs, LS Mean (SE) [10]: 1.75 (0.155) CSBMs/week | Change from Baseline in CSBMs, Mean (SD) [10]: 1.78 (2.752) CSBMs/week | Change from Baseline in CSBMs, Difference from Placebo [11]: 0.88 CSBMs/week | Change from Baseline in CSBMs, LS Mean (SE) [11]: 1.71 (0.151) CSBMs/week | Change from Baseline in CSBMs, Mean (SD) [11]: 1.72 (2.897) CSBMs/week | Change from Baseline in CSBMs, Difference from Placebo [12]: 0.87 CSBMs/week | Change from Baseline in CSBMs, LS Mean (SE) [12]: 1.74 (0.153) CSBMs/week | Change from Baseline in CSBMs, Mean (SD) [12]: 1.74 (2.911) CSBMs/week | Change from Baseline in CSBMs, Mean (SD) (Week 1, Active Combined, ITT Population-Excluding Duplicate Patients, MRA): 1.76 (2.832) CSBMs/week | Change from Baseline in CSBMs, Mean (SD) (Week 1, Active Combined, ITT Population, MRA): 1.74 (2.815) CSBMs/week | Change from Baseline in CSBMs, Difference from Placebo [13]: 0.86 CSBMs/week | Change from Baseline in CSBMs, LS Mean (SE) [13]: 1.82 (0.153) CSBMs/week | Change from Baseline in CSBMs, Mean (SD) [13]: 1.81 (2.963) CSBMs/week | Change from Baseline in CSBMs, Difference from Placebo [14]: 0.85 CSBMs/week | Change from Baseline in CSBMs, LS Mean (SE) [14]: 1.84 (0.155) CSBMs/week | Change from Baseline in CSBMs, Mean (SD) [14]: 1.82 (2.986) CSBMs/week | Change from Baseline in CSBMs, Difference from Placebo [15]: 0.85 CSBMs/week | Change from Baseline in CSBMs, LS Mean (SE) [15]: 1.81 (0.152) CSBMs/week | Change from Baseline in CSBMs, Mean (SD) [15]: 1.84 (3.158) CSBMs/week | Change from Baseline in CSBMs, Difference from Placebo [16]: 0.85 CSBMs/week | Change from Baseline in CSBMs, LS Mean (SE) [16]: 1.84 (0.154) CSBMs/week | Change from Baseline in CSBMs, Mean (SD) [16]: 1.85 (3.171) CSBMs/week | Change from Baseline in CSBMs, Mean (SD) (Week 2, Active Combined, ITT Population-Excluding Duplicate Patients, MRA): 1.84 (3.079) CSBMs/week | Change from Baseline in CSBMs, Mean (SD) (Week 2, Active Combined, ITT Population, MRA): 1.82 (3.061) CSBMs/week | Change from Baseline in CSBMs, Difference from Placebo [17]: 0.74 CSBMs/week | Change from Baseline in CSBMs, LS Mean (SE) [17]: 1.94 (0.153) CSBMs/week | Change from Baseline in CSBMs, Mean (SD) [17]: 1.94 (3.117) CSBMs/week | Change from Baseline in CSBMs, Difference from Placebo [18]: 0.74 CSBMs/week | Change from Baseline in CSBMs, LS Mean (SE) [18]: 1.96 (0.156) CSBMs/week | Change from Baseline in CSBMs, Mean (SD) [18]: 1.95 (3.143) CSBMs/week | Change from Baseline in CSBMs, Difference from Placebo [19]: 0.61 CSBMs/week | Change from Baseline in CSBMs, LS Mean (SE) [19]: 1.81 (0.152) CSBMs/week
